Laboratory results from patent publication US20260294871A1, “PHARMACEUTICAL COMBINATIONS AND COMPOSITIONS THEREOF COMPRISING ANTIBACTERIAL AGENTS” (priority 2023, published 2026).
Values after ≈ are worked out from the molar mass of the structure shown. Values joined by “and” are separate entries in the source; they are usually repeats but may differ in a detail not shown here. Equal entries are not always repeated. Where two headings read alike, the source gives them in different places.

Tests used:
[1] = system: all grouped isolates from India; assay: MIC by broth microdilution against all grouped isolates from India; type: cell-based, resistant bacterial strains
Procedure: (§1) In a typical study MIC tests were performed by broth microdilution in line with CLSI susceptibility testing standards. Bacterial inocula were prepared at ca. 1×10^6 CFU/mL by diluting 100-fold a 0.5 McFarland suspension in CA-MHB with TES. Microtiter plate wells containing 50 μL of antibacterial solutions at 2×the final concentrations were diluted 2-fold with 50 μL of inoculum to give a final inoculum of ca. 5×10^5 CFU/mL and desired test concentrations of antibacterial agents. Test microtiter plates were incubated according to CLSI guidelines and read visually. MIC values corresponded to the first well with no visible growth.
There was a marked improvement in antibacterial activity, compared to MEM alone, observed for the triple combinations, for MEM/AVI [4 mg/L]/EDTA [10 mM] and MEM/AVI [4 mg/L]/EDTA [20 mM], the reduction in MIC90 was 0.06 μg/mL and ≤0.002 μg/mL, respectively.

[2] = system: Enterobacterales isolates from India; assay: MIC by broth microdilution against Enterobacterales; type: cell-based, Enterobacteriaceae; conditions: n=301
Procedure: as §1
The results of antibacterial activity of amikacin, Ceftazidime-avibactam, Ceftriaxone with sulbactam and EDTA, Meropenem and Meropenem with avibactam and EDTA against highly resistant strains of Enterobacteriaceae are given in Table 2.

Escherichia coli = assay: MIC by broth microdilution against E. coli; type: cell-based; conditions: Escherichia coli, highly resistant strains
Procedure: as §1
The results of antibacterial activity of amikacin, Ceftazidime-avibactam, Ceftriaxone with sulbactam and EDTA, Meropenem and Meropenem with avibactam and EDTA against highly resistant strains of Escherichia coli are given in Table 3. […] There was a marked improvement in antibacterial activity, compared to MEM alone, observed for the triple combination MEM/AVI [4 mg/L]/EDTA [10 mM] with a MIC90 at 0.004 μg/mL

K. pneumoniae [3] = assay: MIC by broth microdilution against Klebsiella; type: cell-based, Klebsiella pneumoniae; conditions: highly resistant strains
Procedure: as §1
The results of antibacterial activity of amikacin, Ceftazidime-avibactam, Ceftriaxone with sulbactam and EDTA, Meropenem and Meropenem with avibactam and EDTA against highly resistant strains of Klebsiella (93. 3% Mem NS) are given in Table 4.

[4] = system: Non-Enterobacteriaceae (non-fermenter isolates); assay: MIC by broth microdilution against Non-Enterobacteriaceae; type: cell-based
Procedure: as §1

P. aeruginosa [5] = assay: MIC by broth microdilution against P. aeruginosa; type: cell-based, Pseudomonas aeruginosa; conditions: Pseudomonas aeruginosa, highly resistant strains
Procedure: as §1
The results of antibacterial activity of amikacin, Ceftazidime-avibactam, Ceftriaxone with sulbactam and EDTA, Meropenem and Meropenem with avibactum and EDTA against highly resistant strains of P. aeruginosa are given in Table 5. As may be seen, the activity of the comparators was much lower although CRO/S4/E10 maximum MIC90 were much lower at ≤0.03 μg/mL.

Acinetobacter baumannii = assay: MIC by broth microdilution against Acinetobacter baumannii; type: cell-based
Procedure: as §1
The results of antibacterial activity of amikacin, Ceftazidime-avibactam, Ceftriaxone with sulbactam and EDTA, Meropenem and Meropenem with avibactum and EDTA against highly resistant strains of Acinetobacter baumannii are given in Table 7.

[6] = system: Stenotrophomonas maltophilia; assay: MIC by broth microdilution against Stenotrophomonas maltophilia; type: cell-based; conditions: Stenotrophomonas maltophilia, highly resistant strains
Procedure: as §1
The results of antibacterial activity of amikacin, Ceftazidime-avibactam, Ceftriaxone with sulbactam and EDTA, Meropenem and Meropenem with avibactum and EDTA against highly resistant strains of Stenotrophomonas maltophilia are given in Table 8.

All isolates (n = 80) = assay: MIC profile of EDTA, all tested isolates; type: cell-based, Gram-negative clinical isolates
Procedure: (§2) Objective: The in-vitro activity of ethylenediaminetetraacetic acid (EDTA) was tested in cation-adjusted Mueller Hinton broth (CA-MHB) and MHB against a panel of Gram-negative clinical isolates from India.
(§3) Method: A total of 80 isolates including ATCC strains and non-duplicate clinically relevant Escherichia coli (n=20), Klebsiella pneumoniae (n=20), Pseudomonas aeruginosa (n=21) and Acinetobacter baumannii (n=19) characterized isolates were selected prior to susceptibility testing. The clinical isolates were collected from hospitalized patients from tertiary care medical centers in India. Isolates were tested for susceptibility to different test concentrations of EDTA (1.25, 2.5, 5, 10, 20, 40, 80 mM) in CA-MHB media and MHB by broth microdilution.

Enterobacterales = assay: MIC profile of EDTA, Enterobacterales; type: cell-based; conditions: n = 40
Procedure: as §2, §3

E. coli = assay: MIC profile of EDTA, E. coli; type: cell-based, Escherichia coli; conditions: for MIC50 / MIC90 / MIC: Escherichia coli, n = 20
Procedure: as §2, §3

K. pneumoniae [7] = assay: MIC profile of EDTA, K. pneumoniae; type: cell-based, Klebsiella pneumoniae
Procedure: as §2, §3

Non-fermenters = assay: MIC profile of EDTA, non-fermenters; type: cell-based; conditions: n = 40; for MIC: CA-MHB
Procedure: as §2, §3

A. baumannii = assay: MIC profile of EDTA, A. baumannii; type: cell-based, Acinetobacter baumannii
Procedure: as §2, §3

P. aeruginosa [8] = assay: MIC profile of EDTA, P. aeruginosa; type: cell-based, Pseudomonas aeruginosa; conditions: for MIC: CA-MHB
Procedure: as §2, §3

NCC[C@H](O)C(=O)N[C@@H]1C[C@H](N)[C@@H](O[C@H]2O[C@H](CN)[C@@H](O)[C@H](O)[C@H]2O)[C@H](O)[C@H]1O[C@H]1O[C@H](CO)[C@@H](O)[C@H](N)[C@H]1O [Amikacin]
MIC50 [1]: > 64 µg/mL | MIC90 [1]: > 64 µg/mL | MIC90 ([1]; all grouped isolates (606)): > 64 µg/mL | MIC90 [2]: >64 µg/mL | MIC50 ([2]; read-out: MIC50): > 64 µg/mL | MIC90 ([2]; read-out: MIC90): > 64 µg/mL | MIC50 (Escherichia coli; read-out: MIC50): 8 µg/mL | MIC90 (Escherichia coli; read-out: MIC90): > 64 µg/mL | MIC50 (K. pneumoniae [3]; Klebsiella pneumoniae, read-out: MIC50): > 64 µg/mL | MIC90 (K. pneumoniae [3]; Klebsiella pneumoniae, read-out: MIC90): > 64 µg/mL | MIC90 (K. pneumoniae [3]): >64 µg/mL | MIC50 [4]: > 64 µg/mL | MIC90 [4]: > 64 µg/mL | MIC90 ([4]; highly resistant strains): >64 µg/mL | MIC50 (P. aeruginosa [5]): > 64 µg/mL | MIC90 (P. aeruginosa [5]; read-out: MIC90): > 64 µg/mL | MIC90 (Acinetobacter baumannii; Acinetobacter baumannii): > 64 µg/mL | MIC50 (Acinetobacter baumannii; Acinetobacter baumannii, highly resistant strains): > 64 µg/mL | MIC90 (Acinetobacter baumannii; highly resistant strains): >64 µg/mL | MIC50 ([6]; read-out: MIC50): > 64 µg/mL | MIC90 ([6]; read-out: MIC90): > 64 µg/mL

O=C(O)CN(CCN(CC(=O)O)CC(=O)O)CC(=O)O [EDTA, N,N′-(Ethane-1,2-diyl)bis[N-(carboxymethyl)glycine]]
MIC50 (All isolates (n = 80); CA-MHB): 10 mM (≈ 2920 µg/mL) | MIC90 (All isolates (n = 80); CA-MHB): > 80 mM and >80 mM | MIC (All isolates (n = 80); CA-MHB, read-out: MIC MAX): > 80 mM | MIC (All isolates (n = 80); CA-MHB, read-out: MIC MIN): ≤ 1.25 mM | MIC50 (All isolates (n = 80); MHB): 2.5 mM (≈ 731 µg/mL) | MIC90 (All isolates (n = 80); MHB): 80 mM (≈ 23400 µg/mL) | MIC MAX (All isolates (n = 80); MHB): >80 mM | MIC MIN (All isolates (n = 80); MHB): ≤1.25 mM | MIC50 (Enterobacterales; CA-MHB): 40 mM (≈ 11700 µg/mL) | MIC90 (Enterobacterales; CA-MHB): > 80 mM and >80 mM | MIC (Enterobacterales; CA-MHB, read-out: MIC MAX): > 80 mM | MIC (Enterobacterales; CA-MHB, read-out: MIC MIN): 2.5 mM (≈ 731 µg/mL) | MIC50 (Enterobacterales; MHB): 10 mM (≈ 2920 µg/mL) | MIC90 (Enterobacterales; MHB): 80 mM (≈ 23400 µg/mL) | MIC (Enterobacterales; MHB, read-out: MIC MAX): > 80 mM | MIC (Enterobacterales; MHB, read-out: MIC MIN): ≤ 1.25 mM | MIC50 (E. coli; CA-MHB): 10 mM (≈ 2920 µg/mL) | MIC90 (E. coli; CA-MHB): 80 mM (≈ 23400 µg/mL) | MIC (E. coli; CA-MHB, read-out: MIC MAX): > 80 mM | MIC (E. coli; CA-MHB, read-out: MIC MIN): 2.5 mM (≈ 731 µg/mL) | MIC50 (E. coli; MHB): 2.5 mM (≈ 731 µg/mL) | MIC90 (E. coli; MHB): 20 mM (≈ 5840 µg/mL) | MIC (E. coli; MHB, read-out: MIC MAX): 80 mM (≈ 23400 µg/mL) | MIC (E. coli; MHB, read-out: MIC MIN): ≤ 1.25 mM | MIC50 and MIC90 in MHB, fold lower to CA-MHB (E. coli; MHB vs CA-MHB): 4 fold | MIC90 (K. pneumoniae [7]; CA-MHB, n = 20): >80 mM | MIC50 (K. pneumoniae [7]; Klebsiella pneumoniae): 80 mM (≈ 23400 µg/mL) | MIC90 (K. pneumoniae [7]; Klebsiella pneumoniae, CA-MHB, n = 20): > 80 mM | MIC (K. pneumoniae [7]; Klebsiella pneumoniae, CA-MHB, n = 20, read-out: MIC MAX): > 80 mM | MIC (K. pneumoniae [7]; Klebsiella pneumoniae, CA-MHB, n = 20, read-out: MIC MIN): 20 mM (≈ 5840 µg/mL) | MIC90 (K. pneumoniae [7]; Klebsiella pneumoniae, MHB, n = 20): 80 mM (≈ 23400 µg/mL) | MIC (K. pneumoniae [7]; Klebsiella pneumoniae, MHB, n = 20, read-out: MIC MAX): > 80 mM | MIC (K. pneumoniae [7]; Klebsiella pneumoniae, MHB, n = 20, read-out: MIC MIN): 5 mM (≈ 1460 µg/mL) | MIC in MHB compared to CA-MHB (K. pneumoniae [7]; MHB vs CA-MHB): almost similar to CA-MHB | MIC50 (K. pneumoniae [7]; MHB, n = 20): 80 mM (≈ 23400 µg/mL) | MIC (Non-fermenters; read-out: MIC MAX): 20 mM (≈ 5840 µg/mL) | MIC (Non-fermenters; read-out: MIC MIN): ≤ 1.25 mM | MIC MAX (Non-fermenters; MHB): 20 mM (≈ 5840 µg/mL) | MIC MIN (Non-fermenters; MHB): ≤1.25 mM | MIC (A. baumannii; Acinetobacter baumannii, read-out: MICs): ≤ 1.25 mM | MIC50 (A. baumannii; Acinetobacter baumannii, CA-MHB, n = 19, read-out: MIC50): ≤ 1.25 mM | MIC90 (A. baumannii; Acinetobacter baumannii, CA-MHB, n = 19, read-out: MIC90): ≤ 1.25 mM | MIC (A. baumannii; Acinetobacter baumannii, CA-MHB, n = 19, read-out: MIC MAX): ≤ 1.25 mM | MIC (A. baumannii; Acinetobacter baumannii, CA-MHB, n = 19, read-out: MIC MIN): ≤ 1.25 mM | MIC50 (A. baumannii; MHB, n = 19): ≤1.25 mM | MIC90 (A. baumannii; MHB, n = 19): ≤1.25 mM | MIC MAX (A. baumannii; MHB, n = 19): ≤1.25 mM | MIC MIN (A. baumannii; MHB, n = 19): ≤1.25 mM | MIC50 (P. aeruginosa [8]; MHB, n = 21): 10 mM (≈ 2920 µg/mL) | MIC90 (P. aeruginosa [8]; MHB, n = 21): 20 mM (≈ 5840 µg/mL) | MIC MAX (P. aeruginosa [8]; MHB, n = 21): 20 mM (≈ 5840 µg/mL) | MIC MIN (P. aeruginosa [8]; MHB, n = 21): ≤1.25 mM | MIC50 (P. aeruginosa [8]; Pseudomonas aeruginosa): 10 mM (≈ 2920 µg/mL) | MIC90 (P. aeruginosa [8]; Pseudomonas aeruginosa): 20 mM (≈ 5840 µg/mL) | MIC (P. aeruginosa [8]; Pseudomonas aeruginosa, n = 21, read-out: MIC MAX): 20 mM (≈ 5840 µg/mL) | MIC (P. aeruginosa [8]; Pseudomonas aeruginosa, n = 21, read-out: MIC MIN): ≤ 1.25 mM
